Calls of active or inactive are those of the source.
Legend:
[1] = viability of uninfected HEp-2 cells – cell-based, HTS, cytotoxicity control for RSV inhibitor project, dose response (AID 2410); assay type: functional; settings: human respiratory syncytial virus
[2] = Luminescence Cell-Based Dose Retest to Confirm Inhibitors of Cancer Stem Cells. [Related pubchem assays (depositor defined):AID2717, AID2721]; assay type: functional; settings: Homo sapiens
[3] = viability of PTEN-deleted HCT116 cells – cell-based, HCT116 PTEN knockout, dose response (AID 1047); assay type: functional;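 further: HCT116 colon tumor cells with PTEN knocked out; cells exposed to compound for 60 hours before readout; potency for loss of cell viability measured by luminescence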
[4] = viability of HCT116 lacking mutant beta-catenin – cell-based, human colon tumor, dose response (AID 1045); assay type: functional;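 further: HCT116 colon tumor cells with beta catenin knocked out; cells exposed to compound for 60 hours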
[5] = target: Cytochrome P450 2C19 (Homo sapiens, UniProt P33261); assay: Cytochrome panel assay with activity outcomes. Panel member name: p450-cyp2c19 Compounds with AC50 equal or less than 10 uM are considered active; assay type: functional
[6] = target: T1, Cytochrome P450 1A2 (Homo sapiens, UniProt P05177);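 further: PubChem cytochrome P450 panel assay, CYP1A2 panel member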
T1 sequence (P05177 whole entry): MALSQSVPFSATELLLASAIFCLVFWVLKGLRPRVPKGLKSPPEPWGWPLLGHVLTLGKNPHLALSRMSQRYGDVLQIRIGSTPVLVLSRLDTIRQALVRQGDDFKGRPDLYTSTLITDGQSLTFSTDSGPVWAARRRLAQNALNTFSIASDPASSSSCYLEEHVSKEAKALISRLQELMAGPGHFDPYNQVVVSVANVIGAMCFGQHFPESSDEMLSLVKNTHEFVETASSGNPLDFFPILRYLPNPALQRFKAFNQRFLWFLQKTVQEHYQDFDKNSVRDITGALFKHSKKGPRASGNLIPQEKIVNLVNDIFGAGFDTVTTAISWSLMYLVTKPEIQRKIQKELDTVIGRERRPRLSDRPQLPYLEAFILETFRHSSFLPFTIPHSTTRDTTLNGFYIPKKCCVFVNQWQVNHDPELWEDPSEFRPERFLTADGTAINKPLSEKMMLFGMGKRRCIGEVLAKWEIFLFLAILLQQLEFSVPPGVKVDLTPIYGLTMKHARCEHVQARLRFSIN

[7] = target: Cytochrome P450 2C9 (Homo sapiens, UniProt P11712)
[8] = luciferase reporter signal suppression in cells – H4 neuroglioma cells, luminescence, dose response (AID 1990); assay type: functional, cell-based
[9] = Luminescence Cell-Based Dose Response HTS to Identify Inhibitors of 5'UTR Stem-Loop Driven Prion Protein mRNA Translation in H4 Neuroglioblastoma Cells. [Related pubchem assays: 1827 (Project Summary), 1813 (Primary HTS)]; assay type: functional
[10] = alpha-synuclein stem-loop luciferase translation blockers – H4 neuroglioma cells, luminescence, confirmation (AID 1988); assay type: functional, cell-based
[11] = Luminescence Cell-Based Dose Confirmation HTS to Identify Activators of 5'UTR Stem-Loop Driven Alpha-Synuclein mRNA Translation in H4 Neuroglioblastoma Cells. [Related pubchem assays: 1829 (Project Summary), 1814 (Primary HTS)]; assay type: functional
[12] = Luminescence Cell-Based Dose Response HTS to Identify Activators of Luciferase Translation or Activity in H4 […] Cells. [Related pubchem assays: 1829 (Project Summary), 1814 (Primary HTS)]; assay type: functional
[13] = tested on: H4; assay: Luminescence Cell-Based Dose Response HTS to Identify Activators of 5'UTR Stem-Loop Driven Prion Protein mRNA Translation in H4 Neuroglioblastoma Cells. [Related pubchem assays: 1829 (Project Summary), 1814 (Primary HTS)]; assay type: functional; settings: Homo sapiens
[14] = Trypanosoma cruzi growth suppression in host cells – NIH3T3 host cells, beta-gal luminescence, confirmation (AID 2044); assay type: functional, cell-based;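 further: intracellular parasites grown in NIH/3T3 mouse fibroblasts as host cells; luminescent beta-galactosidase reporter signal from transgenic T. cruzi replicating inside host cells; inhibitors lower the luminescence signal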
[15] = NIH3T3 cell viability loss – ATP luminescence, mouse fibroblasts, counter-screen, dose response (AID 2010); assay type: functional, cell-based;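 further: cells exposed to compound for about 90 hours before reading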

Sequence of Cytochrome P450 2C9 (P11712 whole entry): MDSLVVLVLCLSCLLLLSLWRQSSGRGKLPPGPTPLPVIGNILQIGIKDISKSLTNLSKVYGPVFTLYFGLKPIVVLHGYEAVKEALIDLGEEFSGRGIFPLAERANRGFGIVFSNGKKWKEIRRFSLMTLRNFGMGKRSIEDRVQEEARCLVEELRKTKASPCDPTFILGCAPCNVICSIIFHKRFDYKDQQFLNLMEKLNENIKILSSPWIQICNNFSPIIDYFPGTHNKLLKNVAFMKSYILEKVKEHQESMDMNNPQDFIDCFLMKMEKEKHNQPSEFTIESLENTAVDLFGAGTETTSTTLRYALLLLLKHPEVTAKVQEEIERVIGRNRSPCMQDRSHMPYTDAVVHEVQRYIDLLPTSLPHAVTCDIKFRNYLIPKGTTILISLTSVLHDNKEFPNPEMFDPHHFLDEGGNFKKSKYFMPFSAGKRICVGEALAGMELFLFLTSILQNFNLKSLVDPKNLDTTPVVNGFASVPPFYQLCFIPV
Sequence of Cytochrome P450 2C19 (P33261 whole entry): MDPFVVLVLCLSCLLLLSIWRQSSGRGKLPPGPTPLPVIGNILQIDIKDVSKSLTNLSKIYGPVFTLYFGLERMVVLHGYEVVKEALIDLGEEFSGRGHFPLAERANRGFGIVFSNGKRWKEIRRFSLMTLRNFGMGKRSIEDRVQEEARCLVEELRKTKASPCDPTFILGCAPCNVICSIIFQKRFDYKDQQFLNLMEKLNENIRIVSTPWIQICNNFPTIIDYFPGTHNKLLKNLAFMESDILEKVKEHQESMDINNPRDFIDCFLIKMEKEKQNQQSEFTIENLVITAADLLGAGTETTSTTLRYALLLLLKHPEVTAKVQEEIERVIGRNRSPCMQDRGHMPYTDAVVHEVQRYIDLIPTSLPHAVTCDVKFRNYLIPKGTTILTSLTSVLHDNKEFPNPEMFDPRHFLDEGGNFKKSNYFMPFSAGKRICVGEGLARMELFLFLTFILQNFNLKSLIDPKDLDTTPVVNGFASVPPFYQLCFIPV

Cc1ccccc1S(=O)(=O)N1[C@@H](c2cccc(Cl)c2)C(C(=O)O)=CC[C@H]1c1ccc(Cl)cc1
CC50 [1]: 15.4 µM (active)

C=CCc1c(C)nc2c(OC)cccc2c1Cl
CC50 [1]: 48.5 µM (active)

O=C(Cc1ccc(F)cc1)Nc1nnc(SCC(=O)N2CCCCC2)s1
AC50 [2]: 24.3 µM (active)

COc1ccc(OC)c(C(=O)/C=C/c2ccccc2C(F)(F)F)c1
AC50 [2]: 5.2 µM (active)

CC(/C=N/NC(=O)c1cc(-c2ccc(C)s2)[nH]n1)=C\c1ccccc1
AC50 [2]: 0.501 µM (active)

O=C(c1cc(C2CC2)nc2ccc(Br)cc12)N1N=C(C(F)F)CC1(O)C(F)F (centres undefined)
EC50 [3]: 10.5 µM (active) | EC50 [4]: 13.9 µM (active)

O[C@@H]1[C@H](O)[C@H]2[C@@H](O)CCN2C[C@@H]1O
AC50 ([5]; read-out: AC50): 39.8 µM (inconclusive) | AC50 [6]: 31.6 µM (inconclusive) | AC50 [7]: 25.1 µM (inconclusive)

CC(=O)OC[C@@H]1O[C@H](CCO/N=C(\C)CCC(=O)OC[C@@H]2O[C@H](C#Cc3ccccc3)C=C[C@@H]2Oc2ccc(C)cc2)C=C[C@@H]1OC(C)=O
AC50 [7]: 6.31 µM (inconclusive)

OC(COCC1COc2ccccc2O1)CN1CCN(c2ccccc2F)CC1 (centres undefined)
AC50 [7]: 20 µM (inconclusive)

O=C(NC(=S)Nc1ccc(Oc2ccc(Cl)cc2)cc1)c1ccccc1
AC50 ([5]; read-out: AC50): 7.08 µM (inconclusive) | AC50 [7]: 2.82 µM (inconclusive)

CCn1c2c(c3ccc(OC)cc31)CCCC2=O
CC50 [1]: > 50 µM (active)

Cc1ccc(-n2nnnc2SC(C(=O)c2c[nH]c3ccccc23)c2ccccc2)cc1 (centres undefined)
AC50 [2]: 2.14 µM (active)

COc1ccc(-c2cc(=O)oc3cc(OCC(=O)c4cccc([N+](=O)[O-])c4)ccc23)cc1
EC50 [3]: 24.9 µM (active) | EC50 [4]: 21.8 µM (active)

CN(CC(=O)Nc1ccc(Cl)c(C(F)(F)F)c1)C(=O)Cc1c[nH]c2ccccc12
CC50 [1]: 16.7 µM (active)

CC(=O)c1cc2c(s1)-c1cc(F)ccc1OC2
CC50 [1]: 33.3 µM (active)

c1cncc(-c2nc(NCc3cccs3)c3ccccc3n2)c1
AC50 ([5]; read-out: AC50): 5.01 µM (inconclusive) | AC50 [7]: 1 µM (inconclusive)

CCN1C(=O)[C@H]2[C@@H](c3ccc(-c4ccc(F)cc4)c(OC)c3)N[C@@](CC(C)C)(C(=O)OC)[C@H]2C1=O
EC50 [8]: 17.2 µM (active) | EC50 [9]: 26.4 µM (active) | EC50 [10]: 13.9 µM (active)

O=C(Nc1ccc(Cn2cccn2)cc1)c1ccc(COc2cccc(Br)c2)cc1
AC50 [2]: < 0.16 µM (active)

O=C(CN1C(=O)S/C(=C\C=C\c2ccccc2)C1=O)N1CCOCC1
EC50 [11]: 12.2 µM (active) | EC50 [12]: 10.3 µM (active) | EC50 [13]: 17.8 µM (active)

Cc1nc2nc(-c3ccc(Cl)cc3)nn2c(C)c1Cl
EC50 [12]: 0.454 µM (active) | EC50 [13]: 5.95 µM (active) | AC50 ([5]; read-out: AC50): 39.8 µM (inconclusive) | AC50 [7]: 20 µM (inconclusive)

O=[N+]([O-])c1nn(-c2ccc3c(c2)OCCO3)[n+]([O-])c1NCCC1=CCCCC1
EC50 [13]: 77.1 µM (active) | EC50 [14]: 0.574 µM (active) | EC50 [15]: > 60 µM (not active) | AC50 [2]: 52.2 µM (active)

CSCC(=O)N1CCC(n2nccc2NC(=O)c2ccc3c(c2)OCO3)CC1
EC50 [11]: 13.6 µM (active) | EC50 [12]: 12.3 µM (active) | EC50 [13]: > 120 µM (not active)

Cn1cccc1C(=O)N1CCC2(CC1)CCN(c1ccccn1)CC2
AC50 [6]: 15.8 µM (inconclusive) | AC50 [7]: 31.6 µM (inconclusive)

COCCn1c(=O)c(-c2cn(C)c3ccccc23)nc2cncnc21
AC50 ([5]; read-out: AC50): 25.1 µM (inconclusive) | AC50 [7]: 10 µM (inconclusive)

Cc1nc2cncnc2n(C2CC2)c1=O
AC50 [7]: 7.94 µM (inconclusive)

Cc1ccc(N2C(=O)C3C4C=CC(CC4)C3C2=O)cc1Br (centres undefined)
AC50 [2]: 0.678 µM (active)

Cc1cccc(C(=N)NOC(=O)CCCN2C(=O)c3ccccc3C2=O)c1
AC50 [5]: inconclusive | AC50 [7]: 3.98 µM (inconclusive)

CCOc1ccccc1NC(=O)c1nnn(-c2ccc3c(c2)OCCO3)c1N
CC50 [1]: 24.3 µM (active)

O=C(OC(C(=O)Nc1ccc(Cl)cc1C(F)(F)F)c1ccccc1)c1c(Cl)cccc1Cl (centres undefined)
CC50 [1]: 22.1 µM (active)

O=C(O)c1ccc(Cn2nnc3sc4c(c3c2=O)CCCC4)cc1
EC50 [11]: 13.2 µM (active) | EC50 [12]: 13.2 µM (active) | EC50 [13]: 53.1 µM (active)

COc1ccc([N+](=O)[O-])cc1NC(=O)C(C)N(C)Cc1cccc(OC)c1OC (centres undefined)
CC50 [1]: > 50 µM (active)

Cc1ccccc1Nc1nc(N)nc(-c2oc3ccccc3c2C)n1
CC50 [1]: 35.4 µM (active) | EC50 [14]: 3.43 µM (active) | EC50 [15]: > 60 µM (not active)

CCC(C)(C)n1nnnc1C(c1cc2cc(C)cc(C)c2nc1O)N1CCN(C(=O)c2ccco2)CC1 (centres undefined)
EC50 [3]: 28.4 µM (active) | EC50 [4]: 30.2 µM (active)

O=C(NC(=S)N1CCCCC1)c1csc([N+](=O)[O-])c1
EC50 [11]: 14.9 µM (active) | EC50 [12]: > 120 µM (not active) | EC50 [13]: > 120 µM (not active)

O=C(NC1CCCC1)c1ccc(CSCc2ccccc2F)o1
EC50 [11]: > 120 µM (not active) | EC50 [12]: 16.2 µM (active) | EC50 [13]: > 120 µM (not active)

COCC(=O)Nc1ccc(-c2cn3cccnc3n2)cc1
AC50 ([5]; read-out: AC50): 3.98 µM (inconclusive) | AC50 [7]: 6.31 µM (inconclusive)

Cc1ccc(Nc2[nH]nc(C)c2[N+](=O)[O-])cc1
EC50 [11]: 44.9 µM (active) | EC50 [12]: 25.3 µM (active) | EC50 [13]: 0.172 µM (active)

Cc1ccc(Nc2nc(N)nc(CN3CCN(Cc4ccc5c(c4)OCO5)CC3)n2)cc1Cl
EC50 [3]: 18 µM (active) | EC50 [4]: 15.9 µM (active)

CCCCn1c(SCC(=O)Nc2cc(NC(=O)c3ccco3)ccc2C)nc2ccccc2c1=O
EC50 [3]: 14.4 µM (active) | EC50 [4]: 19.7 µM (active)

Cc1cc(C)c(NC(=O)CSc2nc(COc3ccccc3)nc3ccccc23)c(C)c1
EC50 [8]: > 120 µM (not active) | EC50 [9]: 16.6 µM (active) | EC50 [10]: > 120 µM (not active)

COc1ccccc1C(=O)Nc1ccc2c(c1)nc(CCNC(=O)c1ccco1)n2C
EC50 [11]: 20.2 µM (active) | EC50 [12]: 81.6 µM (active) | EC50 [13]: > 120 µM (not active)

O=C(OCCOc1ccccc1)c1[nH]nc2ccccc12
EC50 [11]: 3.16 µM (active) | EC50 [12]: 0.748 µM (active) | EC50 [13]: 98.3 µM (inconclusive)

COc1ccc(CCN2C(=S)N(C)C(=O)C2CC(=O)Nc2ccc(OC)cc2)cc1 (centres undefined)
AC50 [2]: 5.5 µM (active)

Cc1ccc(N=NC2=C(O)OC(C)(C)OC2=O)c(C)c1
EC50 [11]: 15 µM (active) | EC50 [12]: 14.7 µM (active) | EC50 [13]: 19.1 µM (active)

CC(C)(C)NC(=O)C(c1c[nH]c2ccccc12)N(C(=O)Cn1nnc(-c2ccc(Cl)cc2)n1)c1ccccc1F (centres undefined)
CC50 [1]: 25.8 µM (active) | EC50 [14]: 1.79 µM (active) | EC50 [15]: > 60 µM (not active)

CCOC(=O)c1[nH]c2c(c1-c1ccccc1)C(=O)CC(c1ccc(OC)c(OC)c1)C2 (centres undefined)
EC50 [3]: 54 µM (active) | EC50 [4]: 69.1 µM (active)

Cc1nc2c(sc3nc4c(cc32)COC(C)(C)C4)c(=O)n1Cc1ccccc1
EC50 [11]: 7.25 µM (active) | EC50 [12]: 7.48 µM (active) | EC50 [13]: 11.6 µM (active)

COc1ccccc1-c1nnc(SCC(=O)Nc2ccccc2)o1
EC50 [11]: 0.382 µM (active) | EC50 [12]: 4.37 µM (inconclusive) | EC50 [13]: 66.2 µM (inconclusive)

COc1ccc(-c2sc3ccc(N4CCOCC4)cc3c2C#CC(C)(C)O)cc1
AC50 [2]: 0.873 µM (active)

Cc1cccc(CNc2ccc(C(CC(N)=O)NC(=O)Cc3cccc4ccccc34)cc2[N+](=O)[O-])c1 (centres undefined)
AC50 [2]: 5.85 µM (active)

Cc1ccc(C)c(OCCC(=O)N2CCN(S(=O)(=O)c3cc(C)ccc3C)CC2)c1
CC50 [1]: 22.3 µM (active) | EC50 [8]: > 120 µM (not active) | EC50 [9]: > 120 µM (not active) | EC50 [10]: 97 µM (active)

Cc1ncc([N+](=O)[O-])n1CCOC(=O)NC(NCc1ccccc1)C(Cl)(Cl)Cl (centres undefined)
AC50 ([5]; read-out: AC50): 14.1 µM (inconclusive) | AC50 [6]: 25.1 µM (inconclusive) | AC50 [7]: 12.6 µM (inconclusive)

CC1(C)Cc2c(c(-c3ccco3)nc3sc4c(NCCN5CCOCC5)ncnc4c23)CO1
EC50 [3]: 8.46 µM (active) | EC50 [4]: 16.2 µM (active)

— ChEMBL document CHEMBL1201862, “PubChem BioAssay data set” (2004)
